According to patent US20250170248A1, “SMARCA DEGRADERS AND USES THEREOF” (Kymera Therapeutics, Inc., priority 2021, published 2025):

How the values were obtained:
Assay type in all cases: cell-based
SMARCA2 [1] = molecular target: T1, SMARCA2 (Homo sapiens, UniProt P51531); assay: MSD SMARCA2 degradation in A549 cell line; conditions: for SMARCA2 MSD A549 degradation 24 h: Average Dmax % / DC50: A549 cells; for DC50 / Dmax: 24 h; for DC50: read-out: SMARCA2 MSD A549 degradation 24 h: Average external-Abs DC50; for Dmax: A549, A549 cells
T1 sequence (P51531 whole entry): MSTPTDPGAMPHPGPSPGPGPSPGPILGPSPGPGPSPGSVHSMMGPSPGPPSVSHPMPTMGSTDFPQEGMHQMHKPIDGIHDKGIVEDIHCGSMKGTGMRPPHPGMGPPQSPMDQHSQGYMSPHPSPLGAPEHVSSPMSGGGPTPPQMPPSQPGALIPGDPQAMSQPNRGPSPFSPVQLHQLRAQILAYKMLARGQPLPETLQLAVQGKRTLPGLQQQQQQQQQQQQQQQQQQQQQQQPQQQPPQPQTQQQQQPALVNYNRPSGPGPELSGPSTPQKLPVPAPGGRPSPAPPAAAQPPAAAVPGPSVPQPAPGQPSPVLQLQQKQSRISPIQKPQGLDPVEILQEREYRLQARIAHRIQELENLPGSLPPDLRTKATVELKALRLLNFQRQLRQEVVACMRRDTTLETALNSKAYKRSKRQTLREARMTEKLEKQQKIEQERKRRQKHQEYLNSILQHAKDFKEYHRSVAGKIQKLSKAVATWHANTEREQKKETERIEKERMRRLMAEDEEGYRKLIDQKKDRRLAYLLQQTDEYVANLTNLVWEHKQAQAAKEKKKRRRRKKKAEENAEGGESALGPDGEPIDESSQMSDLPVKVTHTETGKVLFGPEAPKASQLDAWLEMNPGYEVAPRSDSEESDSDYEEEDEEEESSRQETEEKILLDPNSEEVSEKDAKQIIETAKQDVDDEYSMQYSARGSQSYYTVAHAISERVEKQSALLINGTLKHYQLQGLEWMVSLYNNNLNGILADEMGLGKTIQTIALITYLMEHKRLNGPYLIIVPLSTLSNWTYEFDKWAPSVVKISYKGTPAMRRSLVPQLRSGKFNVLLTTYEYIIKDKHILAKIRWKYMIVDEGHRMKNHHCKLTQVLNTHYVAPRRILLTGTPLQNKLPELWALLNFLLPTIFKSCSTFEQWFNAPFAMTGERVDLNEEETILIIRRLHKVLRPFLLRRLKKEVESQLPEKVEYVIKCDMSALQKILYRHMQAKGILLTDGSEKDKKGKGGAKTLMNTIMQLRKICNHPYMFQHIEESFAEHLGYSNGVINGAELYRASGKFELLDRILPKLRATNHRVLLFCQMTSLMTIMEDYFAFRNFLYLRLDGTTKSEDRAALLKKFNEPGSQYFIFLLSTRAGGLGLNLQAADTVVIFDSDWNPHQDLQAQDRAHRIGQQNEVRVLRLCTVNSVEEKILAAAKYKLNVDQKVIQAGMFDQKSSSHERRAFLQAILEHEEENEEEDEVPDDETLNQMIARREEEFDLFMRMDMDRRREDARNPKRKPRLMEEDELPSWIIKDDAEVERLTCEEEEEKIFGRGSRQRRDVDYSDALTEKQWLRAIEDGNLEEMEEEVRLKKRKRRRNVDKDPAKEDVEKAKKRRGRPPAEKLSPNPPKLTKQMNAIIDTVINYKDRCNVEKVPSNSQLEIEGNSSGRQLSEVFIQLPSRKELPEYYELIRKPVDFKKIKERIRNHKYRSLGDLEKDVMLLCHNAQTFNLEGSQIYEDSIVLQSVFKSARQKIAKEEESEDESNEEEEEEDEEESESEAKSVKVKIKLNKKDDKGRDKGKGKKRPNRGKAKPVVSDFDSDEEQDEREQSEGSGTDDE
Procedure, shortened: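 A549 cells treated 24 h with compound, 3-fold series from 1000 nM. Lysates captured on MSD plates and SMARCA2 quantified with anti-SMARCA2 and SULFO-TAG secondary antibodies (electrochemiluminescence). DC50 and Dmax (% degradation at 24 h) reported as letter bins.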

SMARCA4 = molecular target: T2, SMARCA4 (Homo sapiens, UniProt P51532); assay: SMARCA4 Western blot degradation in MV4-11 cells; conditions: for DC50 / Dmax: 24 h; for DC50: read-out: SMARCA4 MSD MV411 degradation 24 h: Mean external-Abs DC50; for Dmax: MV4-11, MV4-11 cells, read-out: SMARCA4 MSD MV411 degradation 24 h: average Dmax %
T2 construct: SMARCA2/SMARCA4 protein degradation selectivity in MV4-11 cells; endogenous in cells; host or cells: MV4-11
T2 sequence (P51532 whole entry): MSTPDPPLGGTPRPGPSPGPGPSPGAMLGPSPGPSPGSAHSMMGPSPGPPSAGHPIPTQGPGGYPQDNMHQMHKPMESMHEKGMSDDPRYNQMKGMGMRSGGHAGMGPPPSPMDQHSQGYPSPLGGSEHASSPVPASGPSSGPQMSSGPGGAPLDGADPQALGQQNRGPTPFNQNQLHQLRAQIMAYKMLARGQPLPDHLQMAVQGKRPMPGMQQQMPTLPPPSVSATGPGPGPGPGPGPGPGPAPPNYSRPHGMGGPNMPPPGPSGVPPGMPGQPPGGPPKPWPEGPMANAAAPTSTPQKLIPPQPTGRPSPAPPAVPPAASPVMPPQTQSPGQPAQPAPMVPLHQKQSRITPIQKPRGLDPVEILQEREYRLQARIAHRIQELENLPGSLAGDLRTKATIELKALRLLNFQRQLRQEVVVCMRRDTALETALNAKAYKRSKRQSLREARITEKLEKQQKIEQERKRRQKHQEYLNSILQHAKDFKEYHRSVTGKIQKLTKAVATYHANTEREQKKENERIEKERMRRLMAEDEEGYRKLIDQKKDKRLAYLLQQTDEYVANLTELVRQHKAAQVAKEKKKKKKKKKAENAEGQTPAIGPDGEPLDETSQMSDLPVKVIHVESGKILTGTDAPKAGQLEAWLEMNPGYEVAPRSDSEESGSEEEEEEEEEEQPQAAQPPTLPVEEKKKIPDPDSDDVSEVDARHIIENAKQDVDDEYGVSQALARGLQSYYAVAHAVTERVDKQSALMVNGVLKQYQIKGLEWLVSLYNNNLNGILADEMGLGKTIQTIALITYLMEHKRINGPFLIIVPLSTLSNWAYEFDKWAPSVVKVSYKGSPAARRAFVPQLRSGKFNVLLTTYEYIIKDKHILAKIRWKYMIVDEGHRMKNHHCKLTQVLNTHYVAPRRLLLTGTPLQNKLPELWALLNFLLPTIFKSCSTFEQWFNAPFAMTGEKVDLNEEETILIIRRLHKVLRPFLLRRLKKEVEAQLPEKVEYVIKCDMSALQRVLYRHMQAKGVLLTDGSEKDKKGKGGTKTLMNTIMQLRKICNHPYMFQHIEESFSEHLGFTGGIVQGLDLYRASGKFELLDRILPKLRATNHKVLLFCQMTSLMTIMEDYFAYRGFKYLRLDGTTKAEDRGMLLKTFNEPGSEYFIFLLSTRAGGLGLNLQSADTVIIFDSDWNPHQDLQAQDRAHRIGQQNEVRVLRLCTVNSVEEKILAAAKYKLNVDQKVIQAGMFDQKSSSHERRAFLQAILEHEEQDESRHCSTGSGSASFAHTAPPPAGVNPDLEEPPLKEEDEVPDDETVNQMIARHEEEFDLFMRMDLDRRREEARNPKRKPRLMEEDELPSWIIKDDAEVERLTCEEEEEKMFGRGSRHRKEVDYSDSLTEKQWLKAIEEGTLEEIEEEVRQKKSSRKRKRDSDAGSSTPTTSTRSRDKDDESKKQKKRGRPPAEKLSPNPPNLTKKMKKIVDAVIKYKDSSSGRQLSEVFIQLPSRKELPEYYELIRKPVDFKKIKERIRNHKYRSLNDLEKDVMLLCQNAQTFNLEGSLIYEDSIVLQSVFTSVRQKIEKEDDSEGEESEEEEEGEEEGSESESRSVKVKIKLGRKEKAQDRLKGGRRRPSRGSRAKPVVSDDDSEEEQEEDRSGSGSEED
Procedure, shortened: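 MV4-11 cells (4×10^6/well) treated with compound for 24 h, lysed in RIPA with protease/phosphatase inhibitors, and SMARCA2, SMARCA4 and beta-actin detected by Western blot with LI-COR readout. Values reported as letter-coded DC50, 24 h Dmax % and SMARCA2/4 selectivity fold.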

SMARCA2 [2] = molecular target: T1, SMARCA2; assay: SMARCA2 Western blot degradation in MV4-11 cells; set-up: SMARCA2/SMARCA4 protein degradation selectivity in MV4-11 cells; endogenous in cells; host or cells: MV4-11; conditions: for DC50: read-out: SMARCA2 MSD MV411 degradation 24 h: Mean external-Abs DC50; for Selectivity in MV411: SMARCA2/4 selectivity; for Dmax: MV4-11, MV4-11 cells, read-out: SMARCA2 MSD MV411 degradation 24 h: average Dmax %

SMILES	SMARCA2 MSD A549 degradation 24 h: Average Dmax % (SMARCA2 [1])	DC50 (SMARCA2 [1]) [nM]	SMARCA4 MSD MV411 degradation 24 h: average Dmax % (SMARCA4; MV4-11 cells)	DC50 (SMARCA4; MV4-11 cells) [nM]	SMARCA2 MSD MV411 degradation 24 h: average Dmax % (SMARCA2 [2]; MV4-11 cells, 24 h)	DC50 (SMARCA2 [2]; MV4-11 cells, 24 h) [nM]	Selectivity in MV411 (SMARCA2 [2]; MV4-11 cells)	Dmax (SMARCA2 [1]) [%]	Dmax (SMARCA4) [%]	Dmax (SMARCA2 [2]; 24 h) [%]
C#Cc1ccc(CNC(=O)[C@@H]2C[C@@H](O)CN2C(=O)[C@@H](NC(=O)[C@H]2CCC3(CC2)C[C@H](N2CCC(N4CCC(N5CCN6c7cc(-c8ccccc8O)nnc7NC[C@H]6C5)CC4)CC2)C3)C(C)(C)C)c(F)c1 (stereo partly drawn) [I-176]		> 100		> 100		10 to 100	C (C (10-100 fold))	> 90	< 50	50 to 70
C#Cc1ccc(CNC(=O)[C@@H]2C[C@@H](O)CN2C(=O)[C@@H](NC(=O)[C@H]2CCC3(CC2)C[C@H](N2CCC(c4cnc(N5CCN6c7cc(-c8cccc(F)c8O)nnc7NC[C@H]6C5)nc4)CC2)C3)C(C)(C)C)cc1 (single isomer, unassigned) [I-102]	A (A (>90% degradation))	10 to 50		> 100		1 to 10	C (C (10-100 fold))		50 to 70	70 to 90
C#Cc1ccc(CNC(=O)[C@@H]2C[C@@H](O)CN2C(=O)[C@@H](NC(=O)N2CC3(CC(N4CCC(N5CCC(N6CCc7[nH]c8nnc(-c9ccccc9O)cc8c7[C@H]6C)CC5)CC4)C3)C2)C(C)(C)C)c(OC)c1 [I-183]		> 100		> 100		10 to 100	C (C (10-100 fold))	> 90	70 to 90	70 to 90
C#Cc1ccc(CNC(=O)[C@@H]2C[C@@H](O)CN2C(=O)[C@@H](NC(=O)N2CC3(CC(N4CCC(N5CCc6[nH]c7nnc(-c8ccccc8O)cc7c6[C@H]5C)CC4)C3)C2)C(C)(C)C)cc1 [I-191]		> 100		> 100		1 to 10	C (C (10-100 fold))	> 90	70 to 90	70 to 90

Further lines, results first:

SMARCA2 MSD A549 degradation 24 h: Average Dmax % (SMARCA2 [1])	DC50 (SMARCA2 [1]) [nM]	SMARCA4 MSD MV411 degradation 24 h: average Dmax % (SMARCA4; MV4-11 cells)	DC50 (SMARCA4; MV4-11 cells) [nM]	SMARCA2 MSD MV411 degradation 24 h: average Dmax % (SMARCA2 [2]; MV4-11 cells, 24 h)	DC50 (SMARCA2 [2]; MV4-11 cells, 24 h) [nM]	Selectivity in MV411 (SMARCA2 [2]; MV4-11 cells)	Dmax (SMARCA2 [1]) [%]	Dmax (SMARCA4) [%]	Dmax (SMARCA2 [2]; 24 h) [%]	SMILES
A (A (>90% degradation))	50 to 100	C (C (50-70% degradation))	> 100	B (B (>70-90% degradation))	10 to 100	C (C (10-100 fold))				C#Cc1ccc([C@H](C)NC(=O)[C@@H]2C[C@@H](O)CN2C(=O)[C@@H](NC(=O)[C@H]2CCC3(CC2)C[C@H](N2CCN(c4cnc(N5CCN6c7cc(-c8ccccc8O)nnc7NC[C@H]6C5)nc4)CC2)C3)C(C)(C)C)cc1 (single isomer, unassigned) [I-234]
	> 100		> 100		> 100	D (D (<10 fold))	70 to 90	< 50	< 50	CC(C)C(C(=O)N1C[C@H](O)C[C@H]1C(=O)N[C@@H](C)C#Cc1ccccc1)c1cc(OCCN2CCC(N3CCC(N4CCC(CN5CCN6c7cc(-c8ccccc8O)nnc7NC[C@H]6C5)CC4)CC3)CC2)no1 (stereo partly drawn) [I-283]
	> 100		> 100		> 100	C (C (10-100 fold))	70 to 90	< 50	< 50	C#Cc1ccc(CNC(=O)[C@@H]2C[C@@H](O)CN2C(=O)[C@@H](NC(=O)N2CCN(C[C@H]3CC[C@H](N4CCC(N5CCc6[nH]c7nnc(-c8ccccc8O)cc7c6[C@H]5C)CC4)CC3)CC2)C(C)(C)C)cc1 [I-194]
	50 to 100		> 100		10 to 100	C (C (10-100 fold))	> 90	< 50	70 to 90	CC#Cc1ccc(CNC(=O)[C@@H]2C[C@@H](O)CN2C(=O)[C@@H](NC(=O)N2CC3(CC(N4CCC(c5cnc(N6CCc7[nH]c8nnc(-c9ccccc9O)cc8c7[C@H]6C)nc5)CC4)C3)C2)C(C)(C)C)c(OC)c1 [I-271]
	> 100		> 100		> 100	C (C (10-100 fold))	< 50	< 50	< 50	C#Cc1ccc([C@H](C)NC(=O)[C@@H]2C[C@@H](O)CN2C(=O)C(c2cc(N3CCC(CN4CCC(N5CCC(N6CCN7c8cc(-c9ccccc9O)nnc8NC[C@H]7C6)CC5)CC4)CC3)no2)C(C)C)c(Cl)c1 (stereo partly drawn) [I-324]
